Structures are written as SMILES. Where two headings read alike, the source gives them in different places. *1 amine or outer side, *2 acyl side, *3 side chain or, on linkers, in order; H or OH if unused. Where a SMILES comes first, the peptide text is derived from it. Bridges are numbered along the chain shown (N, C = ends). [ ]: non-standard residue; d: D form. The star is where a group is joined. DOTA = O=C(O)CN1CCN(CC(=O)O)CCN(CC(=O)*)CCN(CC(=O)O)CC1; Pro(trans-4-F) = O=C(O)[C@@H]1C[C@@H](F)CN1; Hyp = O=C(O)[C@@H]1C[C@@H](O)CN1; dCit = NC(=O)NCCC[C@@H](N)C(=O)O; Pentanoyl(4-Me) = CC(C)CCC(=O)*; Cit = NC(=O)NCCC[C@H](N)C(=O)O; Nva = CCC[C@H](N)C(=O)O; Pentanoyl = CCCCC(=O)*; CO = O=C([*:1])[*:2]; NHBu = CCCCN*

Four compounds from patent EP4610269A1, “UROKINASE PLASMINOGEN ACTIVATOR SURFACE RECEPTOR (UPAR) LIGANDS FOR DIAGNOSTIC OR THERAPEUTIC USE” (3B Pharmaceuticals GmbH, priority 2024, dated 2025) can be followed below.

In one data set the target is T1, human uPAR (uPAR-Fc) (Homo sapiens, UniProt Q03405).
T1 construct: comprising amino acids Leu23-Arg303 according to UniProt entry Q03405.1; purchased R&D Systems 10378-UK-100
T1 sequence (Q03405 23-303): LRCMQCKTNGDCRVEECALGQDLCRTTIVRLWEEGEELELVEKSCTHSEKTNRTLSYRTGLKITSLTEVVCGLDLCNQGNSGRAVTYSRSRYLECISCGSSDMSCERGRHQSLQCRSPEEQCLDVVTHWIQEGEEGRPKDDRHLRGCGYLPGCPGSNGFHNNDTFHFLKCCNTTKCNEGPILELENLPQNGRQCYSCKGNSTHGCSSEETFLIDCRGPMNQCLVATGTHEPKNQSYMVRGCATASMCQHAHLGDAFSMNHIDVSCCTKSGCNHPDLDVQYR
Briefly: Surface plasmon resonance (SPR) assay, single cycle kinetics. The data set is classed as binding. The following applies: pKD category for uPAR SPR activity assay, uPAR-Fc on Protein A-Chip, 25°C, read-out: pKD CAT (converted). In a few lines:
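uPAR-Fc (Leu23-Arg303 extracellular domains, human IgG1 Fc) captured on Protein A chip to ~2000 RU; single-cycle kinetics at 25°C in HEPES running buffer pH 7.4 with 0.1% DMSO. KD from double-referenced sensorgrams fitted to 1:1 Langmuir model, reported as pKD.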
Background: In SPR one partner is held on a chip, and binding of the other changes the refractive index at the surface.

Data set [1] deals with T2, uPAR-expressing HEC-265 human endometrial adenocarcinoma cells (Homo sapiens, UniProt Q03405).
T2 construct: Cell surface uPAR-expressing HEC-265 human endometrial adenocarcinoma cells; host or cells: HEC-265
T2 sequence (Q03405 23-335): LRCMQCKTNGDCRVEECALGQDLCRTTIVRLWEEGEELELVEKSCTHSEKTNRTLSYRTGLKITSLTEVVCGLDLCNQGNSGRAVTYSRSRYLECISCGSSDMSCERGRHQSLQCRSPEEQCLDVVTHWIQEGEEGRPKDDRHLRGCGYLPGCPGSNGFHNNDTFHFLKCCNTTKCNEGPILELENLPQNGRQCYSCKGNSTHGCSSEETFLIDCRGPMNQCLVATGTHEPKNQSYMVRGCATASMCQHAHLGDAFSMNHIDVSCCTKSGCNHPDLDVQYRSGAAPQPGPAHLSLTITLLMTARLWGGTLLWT
Briefly: Competitive FACS binding assay. The following applies: pIC50 category of FACS binding. In a few lines: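 HEC-265 cells incubated 1 h at 4 °C with 10 nM biotinylated uPAR peptide tracer plus increasing test compound, then stained with APC-streptavidin on ice. Median APC fluorescence by flow cytometry; 4PL fit gives pIC50.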

The target in data set [2] is T3, Recombinant soluble human NEP (Homo sapiens, UniProt P08473).
T3 construct: Recombinant soluble human NEP; purchased BioTechne, Wiesbaden, Germany
T3 sequence (P08473 52-750 limits assumed): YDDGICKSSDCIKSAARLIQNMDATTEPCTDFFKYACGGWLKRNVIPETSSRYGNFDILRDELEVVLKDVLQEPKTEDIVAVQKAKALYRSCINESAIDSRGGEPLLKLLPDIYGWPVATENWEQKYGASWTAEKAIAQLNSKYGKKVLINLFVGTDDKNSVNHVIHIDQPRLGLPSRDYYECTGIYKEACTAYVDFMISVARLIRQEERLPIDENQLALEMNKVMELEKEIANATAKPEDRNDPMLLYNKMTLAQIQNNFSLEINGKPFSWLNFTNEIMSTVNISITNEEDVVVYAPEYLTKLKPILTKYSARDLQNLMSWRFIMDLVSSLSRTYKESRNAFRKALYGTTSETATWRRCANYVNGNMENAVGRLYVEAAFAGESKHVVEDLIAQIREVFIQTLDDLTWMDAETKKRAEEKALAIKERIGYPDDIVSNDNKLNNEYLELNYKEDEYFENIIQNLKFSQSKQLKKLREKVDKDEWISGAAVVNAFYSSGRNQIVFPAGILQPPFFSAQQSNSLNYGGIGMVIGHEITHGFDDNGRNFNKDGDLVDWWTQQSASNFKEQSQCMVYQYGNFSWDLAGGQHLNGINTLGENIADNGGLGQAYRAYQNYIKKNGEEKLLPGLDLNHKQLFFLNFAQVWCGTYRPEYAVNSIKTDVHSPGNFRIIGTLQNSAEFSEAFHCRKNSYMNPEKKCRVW
Briefly: Proteolytic stability assay against NEP. The data set is classed as in vitro ADME. The following applies: recombinant soluble human NEP, human NEP 100 ng/mL, compound 10 µM, 37°C, LC-MS quantification, read-out: % intact compound remaining after 24h incubation. The procedure: To assess the stability of compounds against NEP, the compounds were subjected to an in vitro assay based on the protocol described by Edelson et al. (Edelson, Makhlina et al. 2013).
Recombinant soluble human NEP (BioTechne, Wiesbaden, Germany) at a concentration of 100 ng/mL was mixed with the compound (10 µM) and a stable internal standard (10 µM) and incubated at 37°C. After several time points, samples were taken and analyzed with LC-MS.
The determination of the analyte in the clean sample solutions was performed on an Agilent 1290 UHPLC system coupled to an Agilent 6530 Q-TOF mass spectrometer. The chromatographic separation was carried out on a Phenomenex BioZen XB-C18 HPLC column (50 × 2 mm, 1.7 µm particle size) with gradient elution using a mixture of 0.1% formic acid in water as eluent A and acetonitrile as eluent B (2% B to 41% in 7 min, 800 µl/min, 40°C). Mass spectrometric detection was performed in positive ion ESI mode by scanning the mass range from m/z 50 to 3000 with a sampling rate of 2 / sec.
(§1) From the mass spectrometric raw data the ion currents for the double or triple charged monoisotopic signal was extracted for both, the compound and the internal standard.
(§2) Quantitation was performed by external matrix calibration with internal standard using the integrated analyte signals.
The activity of NEP was examined using a commercially available chromogenic substrate of NEP.
The result is stated as "% intact compound remaining after 24 h incubation" and means that from the amount of material at the start of the experiment the stated percentage is detected as unchanged material at the end of the experiment by LC-MS quantification. Since all compounds are more than 50% intact after 24 h they are considered as stable enough for diagnostic and therapeutic applications. Table 14: Results of the NEP stability assay

Data set [3] in a line: Plasma stability assay (human plasma). In kind it is in vitro ADME. The following applies: human plasma (sodium citrate 3.7%), 37°C, LC-MS quantification, read-out: % intact compound remaining after 6h incubation Human plasma. As to the method:
(§3) In order to determine the stability of selected compounds of the invention in human and mouse plasma, a plasma stability assay was carried out. Such plasma stability assay measures degradation of compounds of the present invention in blood plasma. This is an important characteristic of a compound as compounds, with the exception of pro-drugs, which rapidly degrade in plasma, generally show poor in vivo efficacy. […] The stability is sufficient for the diagnostic, therapeutic and theragnostic use of these compounds according to the present invention.
(§4) The plasma stability samples were prepared by spiking 50 µl plasma aliquots (all sodium citrate 3.7%) with 1 µl of a 0.5 mM compound stock solution in DMSO. After vortexing the samples were incubated in a Thermomixer at 37°C for 0 and 6 hours. After incubation the samples were stored on ice until further treatment. All samples were prepared in duplicates.
A suitable internal standard was added to each sample (1 µl of a 0.5 mM stock solution in DMSO). Protein precipitation was performed using two different methods depending on the compound conditions as indicated in Table 13. • A) 250 µl of acetonitrile containing 1% trifluoroacetic acid was added. […]
as §2
(§5) Additionally, recovery was determined by spiking a pure plasma sample that only contained the internal standard after treatment with a certain amount of the compound.
(§6) Carry-over was evaluated by analysis of a blank sample (20% acetonitrile) after the highest calibration sample.
The result is stated as "% intact compound remaining after 6 h incubation" and means that from the amount of material at the start of the experiment the stated percentage is detected as unchanged material at the end of the experiment by LC-MS quantification. […]

Data set [4] is described as follows: Plasma stability assay (mouse plasma). The following applies: mouse plasma (sodium citrate 3.7%), 37°C, LC-MS quantification, read-out: % intact compound remaining after 6h incubation Mouse plasma. The data set is classed as in vitro ADME. The procedure: as §3, §4
A suitable internal standard was added to each sample (1 µl of a 0.5 mM stock solution in DMSO). Protein precipitation was performed using two different methods depending on the compound conditions as indicated in Table 13. • A) 250 µl of acetonitrile containing 1% trifluoroacetic acid was added. After incubation at room temperature for 30 min the precipitate was separated by centrifugation and 150 µl of the supernatant was diluted with 150 µl of 1% aqueous formic acid. • B) 150 µl of a zinc sulphate precipitation agent containing 78% 0.1 M zinc sulphate and 22% acetonitrile was added. After incubation at room temperature for 30 min the precipitate was separated by centrifugation. To 100 µl of the supernatant 10 µl of 1% formic acid was added followed by further incubation at 60°C for 10 min to complete the formation of the zinc chelate, if the compound contains a free DOTA moiety.
The determination of the analyte in the clean sample solutions was performed on an Agilent 1290 UHPLC system coupled to an Agilent 6530 Q-TOF mass spectrometer. The chromatographic separation was carried out on a Phenomenex BioZen XB-C18 HPLC column (50 x 2 mm, 1.7 µm particle size).
Two different elution gradients were applied using a mixture of 0.1% formic acid in water as eluent A and acetonitrile as eluent B: • A) 2% B to 41% in 7 min, 800 µl/min, 40°C. • B) 5% B to 50% B in 6 min, 800 µL/min, 40°C.
Mass spectrometric detection was performed in positive ion ESI mode by scanning the mass range from m/z 50 to 3000 with a sampling rate of 2 / sec.
as §1, §2, §5, §6
The result is stated as "% intact compound remaining after 6 h incubation" and means that from the amount of material at the start of the experiment the stated percentage is detected as unchanged material at the end of the experiment by LC-MS quantification. Since all compounds are more than 50% intact after 6 h they are considered as stable enough for diagnostic and therapeutic applications. Table 13: Results of the plasma stability assay

One may read the IC50 as the concentration at which inhibition is half-maximal. Lower therefore signals greater potency in that assay. By share remaining is commonly meant the share of the starting amount still present when the sample was taken. Consider `CCCCNC(=O)N[C@H]1CSSC[C@@H](C(N)=O)NC(=O)[C@H](CCC)NC(=O)[C@H]([C@@H](C)CC)NC(=O)[C@@H]2C[C@@H](O)CN2C(=O)[C@@H]2CCCN2C(=O)[C@H](Cc2ccccc2)NC(=O)[C@H](Cc2ccc(O)cc2)NC(=O)[C@H](CCCCNC(=O)CN2CCN(CC(=O)O)CCN(CC(=O)O)CCN(CC(=O)O)CC2)NC(=O)[C@H](CCCNC(N)=O)NC1=O` [UPAR-346, nBu-CAyl-[Cys-Cit-Lys(DOTA)-Tyr-Phe-Pro-Hyp-Ile-Nva-Cys]-NH2] ({NHBu-CO}-C[Cit]K(DOTA)YFP[Hyp]I[Nva]C-NH2; disulfide 1-10), for which the Kd at human uPAR (uPAR-Fc) (single cycle kinetics) is < 1.58 nM. For the same compound, the IC50 in data set [1] was ≤ 10 nM. Besides, the share remaining at 24 h, 10 µM in data set [2] was determined as 89%.
`CCCCC(=O)N[C@H]1CSSC[C@@H](C(N)=O)NC(=O)[C@H](CCC)NC(=O)[C@H]([C@@H](C)CC)NC(=O)[C@@H]2C[C@@H](F)CN2C(=O)[C@@H]2CCCN2C(=O)[C@H](Cc2ccccc2)NC(=O)[C@H](Cc2ccc(O)cc2)NC(=O)[C@H](CCCCNC(=O)CN2CCN(CC(=O)O)CCN(CC(=O)O)CCN(CC(=O)O)CC2)NC(=O)[C@H](CCCNC(N)=O)NC1=O` [UPAR-246, Pent-[Cys-Cit-Lys(DOTA)-Tyr-Phe-Pro-4Tfp-Ile-Nva-Cys]-NH2] (Pentanoyl-C[Cit]K(DOTA)YFP[Pro(trans-4-F)]I[Nva]C-NH2; disulfide 1-10): the Kd on human uPAR (uPAR-Fc) is < 1.58 nM. In data set [1], the IC50 is ≤ 10 nM. For the same compound, the share remaining at 24 h, 10 µM in data set [2] came to 89%.
`CC[C@H](C)[C@@H]1NC(=O)[C@@H](C)NC(=O)[C@@H]2CCCN2C(=O)[C@H](Cc2ccccc2)NC(=O)[C@H](Cc2ccc(O)cc2)NC(=O)[C@H](CCC(N)=O)NC(=O)[C@@H](CCCNC(N)=O)NC(=O)[C@@H](NC(=O)CCC(C)C)CSSC[C@@H](C(N)=O)NC(=O)[C@H](CC(C)C)NC1=O` [UPAR-364, iHex-[Cys-cit-Gln-Tyr-Phe-Pro-ala-Ile-Leu-Cys]-NH2] ({Pentanoyl(4-Me)}-C[dCit]QYFP[dA]ILC-NH2; disulfide 1-10): on human uPAR (uPAR-Fc) (single cycle kinetics), the Kd is > 100 nM. Also, the half-maximal inhibitory concentration (IC50) in data set [1] is ≥ 126 nM. Moreover, in data set [2], the fraction remaining at 24 h, 10 µM was > 95%.
`CCCCC(=O)N[C@H]1CSSC[C@@H](C(N)=O)NC(=O)[C@H](CCC)NC(=O)[C@H]([C@@H](C)CC)NC(=O)[C@@H]2C[C@@H](O)CN2C(=O)[C@@H]2CCCN2C(=O)[C@H](Cc2ccccc2)NC(=O)[C@H](Cc2ccc(O)cc2)NC(=O)[C@H](CCCCNC(=O)CN2CCN(CC(=O)O)CCN(CC(=O)O)CCN(CC(=O)O)CC2)NC(=O)[C@H]([C@@H](C)O)NC1=O` [UPAR-301, Pent-[Cys-Thr-Lys(DOTA)-Tyr-Phe-Pro-Hyp-Ile-Nva-Cys]-NH2] (Pentanoyl-CTK(DOTA)YFP[Hyp]I[Nva]C-NH2; disulfide 1-10): the amount remaining at 6 h, 9.8 µM was > 95% in data set [3] and 91% in data set [4]. Besides, the Kd at human uPAR (uPAR-Fc) is < 1.58 nM. Moreover, the IC50 in data set [1] is ≤ 10 nM.
